The values below come from ChEMBL document CHEMBL2203150, “CXCR3 antagonists: quaternary ammonium salts equipped with biphenyl- and polycycloaliphatic-anchors” (Bioorg Med Chem, 2011).

Structures are written as SMILES. Some results are limits rather than exact numbers.

Assay [1] deals with T1, C-X-C chemokine receptor type 3 (Homo sapiens, UniProt P49682).
T1 sequence (P49682 whole entry): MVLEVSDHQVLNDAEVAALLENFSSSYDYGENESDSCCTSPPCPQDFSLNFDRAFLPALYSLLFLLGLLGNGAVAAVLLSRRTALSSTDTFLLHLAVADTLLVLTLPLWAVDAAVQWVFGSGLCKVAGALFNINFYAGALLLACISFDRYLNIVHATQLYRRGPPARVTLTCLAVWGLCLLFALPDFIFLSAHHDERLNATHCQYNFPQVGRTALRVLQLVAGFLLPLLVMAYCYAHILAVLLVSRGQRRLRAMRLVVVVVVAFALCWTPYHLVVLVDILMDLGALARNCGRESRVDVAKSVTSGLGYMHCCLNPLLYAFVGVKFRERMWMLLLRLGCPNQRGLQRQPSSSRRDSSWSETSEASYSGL
Nature of the assay: Displacement of [125I]-CXCL10 from human CXCR3 expressed in HEK293 cells. The assay is classed as cell-based.

Assay [2] deals with T2, C-X-C chemokine receptor type 3 (Homo sapiens) (UniProt P49682).
T2 sequence (whole entry): T1 sequence (P49682 whole entry)
The assay is described as follows: Antagonist activity at human CXCR3 expressed in HEK293T cells co-expressing Galphaqi5 assessed as inhibition of CXCL10-induced [3H]-inositolphosphates levels. The assay is classed as functional, cell-based. Particulars: HEK-293T.

Assay [3] concerns the target T1, C-X-C chemokine receptor type 3. The assay is described as follows: Displacement of [125I]-CXCL11 from human CXCR3 expressed in HEK293 cells. In kind it is cell-based. For orientation: Displacement assays read how much labelled ligand stays bound in the presence of the test substance.

Usually Ki stands for the dissociation constant of the complex between target and ligand, obtained from inhibition or displacement. Low values mean higher affinity, high ones lower affinity. `CC1(C)[C@H]2CC=C(C[N+](C)(C)Cc3ccc(-c4cccc(C(F)(F)F)c4)cc3)[C@@H]1C2` gave a Ki in assay [1] of 501 nM. That is a sub-micromolar value.
In turn, `CN(CC1=CC[C@H]2C[C@@H]1C2(C)C)Cc1ccc(-c2cccc(N)c2)cc1` had an inhibition constant Ki in assay [1] of 6310 nM.
On the same count and under the same terms, with `CC1(C)[C@H]2CC=C(C[N+](C)(C)Cc3ccc(-c4ccccc4)cc3)[C@@H]1C2` the figure was 316 nM; with `CC1(C)[C@H]2CC=C(C[N+](C)(C)Cc3ccc(Oc4ccccc4)cc3)[C@@H]1C2`, 2000 nM; with `CN(CC1=CC[C@H]2C[C@@H]1C2(C)C)Cc1ccc(-c2ccccc2F)cc1`, above 316 nM.
Same read-out and setting: with `CN(CC1=CC[C@H]2C[C@@H]1C2(C)C)Cc1ccc(-c2ccsc2)cc1` the figure was 3980 nM; with `CN(CC1=CC[C@H]2C[C@@H]1C2(C)C)Cc1ccc(-c2cccc(F)c2)cc1`, 2510 nM; with `CC1(C)[C@H]2CC=C(C[N+](C)(C)Cc3ccccc3)[C@@H]1C2`, 3980 nM.
Same read-out and setting: with `CC(=O)c1cccc(-c2ccc(C[N+](C)(C)CC3=CC[C@H]4C[C@@H]3C4(C)C)cc2)c1` the figure was 631 nM; with `C[N+](C)(CCC12CC3CC(CC(C3)C1)C2)Cc1ccc(I)cc1`, 631 nM; with `CN(CC1=CC[C@H]2C[C@@H]1C2(C)C)Cc1ccc(-c2cc(Cl)cc(Cl)c2)cc1`, above 316 nM.
For `CC1(C)[C@H]2CC=C(C[N+](C)(C)Cc3ccc(-c4cccc(F)c4)cc3)[C@@H]1C2`, the Ki in assay [1] is 316 nM.
In assay [1], `CN(CC1=CC[C@H]2C[C@@H]1C2(C)C)Cc1ccc(-c2cccc(O)c2)cc1` had a Ki above 316 nM.
In the case of `CC1(C)[C@H]2CC=C(C[N+](C)(C)Cc3ccc(-c4cccc([N+](=O)[O-])c4)cc3)[C@@H]1C2`, the affinity in assay [1] corresponds to a Ki of 200 nM.
Consider `CN(CC1=CC[C@H]2C[C@@H]1C2(C)C)Cc1cccc(I)c1`, for which, in assay [1], the inhibitory constant (Ki) is 7940 nM.
On the same count and under the same terms, the same measure for `CC1(C)[C@H]2CC=C(C[N+](C)(C)Cc3ccc(-c4ccc(Cl)cc4)cc3)[C@@H]1C2`: 501 nM; for `CC1(C)[C@H]2CC=C(C[N+](C)(C)Cc3ccc(Cl)c(Cl)c3)[C@@H]1C2`: 398 nM.
Still for that read-out and setting: the same measure for `CC1(C)[C@H]2CC=C(C[N+](C)(C)Cc3ccc(-c4ccc(C(F)(F)F)cc4)cc3)[C@@H]1C2`: 1260 nM; for `Ic1ccc(CNCC2C3CC4CC(C3)CC2C4)cc1` (stereo unspecified): 2510 nM.
Still for that read-out and setting: the same measure for `C[N+](C)(C/C1=C/CCCCCC1)Cc1ccc(I)cc1` (mixture of isomers): 1000 nM; for `CC1(C)[C@H]2CC=C(C[N+](C)(C)Cc3ccc4oc5ccccc5c4c3)[C@@H]1C2`: 501 nM.
Compound `CN(CC1=CC[C@H]2C[C@@H]1C2(C)C)Cc1ccc(-c2cccc(Cl)c2)cc1` had an inhibition constant (Ki) in assay [1] of 3980 nM.
On the same count and under the same terms, the same measure for `CC1(C)[C@H]2CC=C(C[N+](C)(C)CCc3ccc(Cl)cc3)[C@@H]1C2`: 1000 nM.
Still for that read-out and setting: the same measure for `CC1(C)[C@H]2CC=C(C[N+](C)(C)Cc3ccc(-c4ccccc4F)cc3)[C@@H]1C2`: 631 nM.
Same read-out and setting: the same measure for `CN(CC1=CC[C@H]2C[C@@H]1C2(C)C)Cc1ccc(Cl)c(Cl)c1`: 3160 nM; for `COC(=O)c1cccc(-c2ccc(CN(C)CC3=CC[C@H]4C[C@@H]3C4(C)C)cc2)c1`: above 316 nM.
With `CN(CC1=CC[C@H]2C[C@@H]1C2(C)C)Cc1ccc(-c2ccc(C(F)(F)F)cc2)cc1`, the inhibition constant (Ki) in assay [1] was above 316 nM.
The same measure, in the same setting: the same measure for `CN(CC1=CC[C@H]2C[C@@H]1C2(C)C)Cc1ccc(Br)cc1`: 3160 nM; for `CN(CC1=CC[C@H]2C[C@@H]1C2(C)C)Cc1ccc(-c2ccc(Cl)cc2)cc1`: above 316 nM.
The term pKb denotes −log10 of the Kb, conventionally taken in molar units. As to `CCOc1ccc(-n2c([C@@H](C)N(Cc3cccnc3)C(=O)Cc3ccc(OC(F)(F)F)cc3)nc3ncccc3c2=O)cc1`, in assay [2], the inhibition result was “Dose-dependent effect” and the pKb worked out at 8.
In assay [1], `CN(CC1=CC[C@H]2C[C@@H]1C2(C)C)Cc1ccc2oc3ccccc3c2c1` showed an inhibitory constant (Ki) above 316 nM.
On the same count and under the same terms, with `Cc1cccc(-c2ccc(C[N+](C)(C)CC3=CC[C@H]4C[C@@H]3C4(C)C)cc2)c1` the figure was 398 nM; with `C[N+](C)(Cc1ccc(I)cc1)CC1C2CC3CC(C2)CC1C3` (stereo unspecified), 794 nM.
Same read-out and setting: the same measure for `CN(CC1=CC[C@H]2C[C@@H]1C2(C)C)Cc1ccc(Cl)cc1`: 2510 nM.
The same measure, in the same setting: with `CC1(C)[C@H]2CC=C(C[N+](C)(C)Cc3ccc(Br)cc3)[C@@H]1C2` the figure was 316 nM.
Consider `CN(CC1=CC[C@H]2C[C@@H]1C2(C)C)Cc1ccc(-c2ccccc2)cc1`, for which affinity in assay [1] was put at a Ki of 3160 nM. This Ki lies about 10-fold higher than the previous one.
Still for that read-out and setting: the same measure for `CN(CC1=CC[C@H]2C[C@@H]1C2(C)C)Cc1ccccc1`: 15800 nM; for `CC(=O)c1cccc(-c2ccc(CN(C)CC3=CC[C@H]4C[C@@H]3C4(C)C)cc2)c1`: above 316 nM; for `CC1(C)[C@H]2CC=C(C[N+](C)(C)Cc3ccc(-c4cccc(N)c4)cc3)[C@@H]1C2`: 3160 nM.
Turning to `CN(CC1=CC[C@H]2C[C@@H]1C2(C)C)Cc1ccccc1I`, the inhibition constant Ki in assay [1] was 5010 nM.
The same measure, in the same setting: with `CN(CC1=CC[C@H]2C[C@@H]1C2(C)C)Cc1ccc(-c2cccc(C(F)(F)F)c2)cc1` the figure was above 316 nM; with `CN(CCC12CC3CC(CC(C3)C1)C2)Cc1ccc(I)cc1`, 5010 nM; with `Cc1cccc(-c2ccc(CN(C)CC3=CC[C@H]4C[C@@H]3C4(C)C)cc2)c1`, above 316 nM.
Same read-out and setting: with `CC1(C)[C@H]2CC=C(C[N+](C)(C)Cc3cccc(I)c3)[C@@H]1C2` the figure was 2000 nM; with `COc1ccc(-c2ccc(C[N+](C)(C)CC3=CC[C@H]4C[C@@H]3C4(C)C)cc2)cc1OC`, 501 nM.
On the same count and under the same terms, with `CC1(C)[C@H]2CC=C(C[N+](C)(C)Cc3ccc4c(c3)Cc3ccccc3-4)[C@@H]1C2` the figure was 501 nM.
Consider `C[N+](C)(Cc1ccc(I)cc1)CC12CC3CC(CC(C3)C1)C2`, for which affinity in assay [1] was put at a Ki of 2000 nM. Compared with the last compound, the Ki is about 4-fold higher.
Still for that read-out and setting: with `CC1(C)[C@H]2CC=C(C[N+](C)(C)Cc3ccc(F)cc3)[C@@H]1C2` the figure was 1260 nM; with `CN(CC1=CC[C@H]2C[C@@H]1C2(C)C)Cc1ccc2c3ccccc3n(C)c2c1`, above 316 nM.
Same read-out and setting: the same measure for `CN(CC1=CC[C@H]2C[C@@H]1C2(C)C)Cc1ccc2c(c1)Cc1ccccc1-2`: above 316 nM; for `CC1(C)[C@H]2CC=C(C[N+]3(C)CCc4ccccc4C3)[C@@H]1C2` (stereo partly specified): 2510 nM; for `CN(C/C1=C/CCCCCC1)Cc1ccc(I)cc1` (mixture of isomers): 7940 nM.
For the compound `CC[N+](C)(CC1=CC[C@H]2C[C@@H]1C2(C)C)Cc1ccc(I)cc1` (stereo partly specified), the inhibitory constant (Ki) in assay [1] was 631 nM. This Ki is about 13-fold lower than that of the compound before.
Still for that read-out and setting: with `CC1(C)[C@@H]2CC[C@@]1(C)C(C[N+](C)(C)Cc1ccc(I)cc1)C2` (mixture of isomers) the figure was 1580 nM; with `CN(CCc1ccc(Cl)cc1)CC1=CC[C@H]2C[C@@H]1C2(C)C`, 5010 nM.
Take `N=C(Nc1ccc(I)cc1)NC1C2CC3CC(C2)CC1C3` (stereo unspecified): the inhibitory constant (Ki) in assay [1] and in assay [3] was 3980 nM in each case.
The compound `CC1(C)[C@H]2CC=C(C[N+](C)(C)Cc3ccccc3I)[C@@H]1C2` gave a Ki in assay [1] of 1580 nM.
Same read-out and setting: the same measure for `CN(Cc1ccc(I)cc1)CC1C2CC3CC(C2)CC1C3` (stereo unspecified): 7940 nM.
Same read-out and setting: with `CN(Cc1ccc(I)cc1)CC1C[C@H]2CC[C@]1(C)C2(C)C` (mixture of isomers) the figure was 7940 nM.
`CC1(C)[C@H]2CC=C(C[N+](C)(C)Cc3cccc(-c4ccccc4)c3)[C@@H]1C2` had a Ki in assay [1] of 3160 nM. This Ki lies about 2.5-fold lower than the previous one.
Still for that read-out and setting: with `CC1(C)[C@H]2CC=C(C[N+](C)(C)Cc3ccc(-c4cc(Cl)cc(Cl)c4)cc3)[C@@H]1C2` the figure was 398 nM; with `CCN(CC1=CC[C@H]2C[C@@H]1C2(C)C)Cc1ccc(I)cc1`, 3980 nM; with `CN(CC1=CC[C@H]2C[C@@H]1C2(C)C)Cc1ccc(I)cc1`, 3160 nM.
As to `CN(CC1=CC[C@H]2C[C@@H]1C2(C)C)Cc1ccc(-c2cccc([N+](=O)[O-])c2)cc1`, the affinity in assay [1] corresponds to a Ki of 2000 nM. This Ki is about 1.6-fold lower than that of the compound before.
The same measure, in the same setting: with `COc1ccc(-c2ccc(CN(C)CC3=CC[C@H]4C[C@@H]3C4(C)C)cc2)cc1OC` the figure was above 316 nM; with `CC1(C)[C@H]2CC=C(C[N+](C)(C)Cc3ccc(-c4cccc(O)c4)cc3)[C@@H]1C2`, 1580 nM; with `CN(CC1=CC[C@H]2C[C@@H]1C2(C)C)Cc1cccc(-c2ccccc2)c1`, above 316 nM.
Same read-out and setting: the same measure for `CN(CC1=CC[C@H]2C[C@@H]1C2(C)C)Cc1ccc(Oc2ccccc2)cc1`: above 316 nM; for `CN(CC1=CC[C@H]2C[C@@H]1C2(C)C)Cc1ccc(-c2ccoc2)cc1`: 6310 nM.
The same measure, in the same setting: the same measure for `CC1(C)[C@H]2CC=C(CN3CCc4ccccc4C3)[C@@H]1C2`: 12600 nM.
For `Cn1c2ccccc2c2ccc(C[N+](C)(C)CC3=CC[C@H]4C[C@@H]3C4(C)C)cc21`, the inhibitory constant (Ki) in assay [1] was 1000 nM.
Still for that read-out and setting: with `COC(=O)c1cccc(-c2ccc(C[N+](C)(C)CC3=CC[C@H]4C[C@@H]3C4(C)C)cc2)c1` the figure was 1000 nM; with `CN(CC1=CC[C@H]2C[C@@H]1C2(C)C)Cc1ccc(F)cc1`, 6310 nM.
The same measure, in the same setting: with `CC1(C)[C@H]2CC=C(C[N+](C)(C)Cc3ccc(-c4ccoc4)cc3)[C@@H]1C2` the figure was 251 nM.
